Experimental data as given in US12679807B2 (MERCK SHARP & DOHME LLC, priority 2020, dated 2026).

Target: T1, GCS enzyme contained within Golgi preparations isolated from human A375 malignant melanoma skin cells (Homo sapiens, UniProt Q16739)
T1 construct: endogenous levels of GCS enzyme contained within Golgi preparations isolated from human A375 malignant melanoma skin cells; endogenous in cells; host or cells: A375 human malignant melanoma cells (crude Golgi preparation)
T1 sequence (Q16739 1-394): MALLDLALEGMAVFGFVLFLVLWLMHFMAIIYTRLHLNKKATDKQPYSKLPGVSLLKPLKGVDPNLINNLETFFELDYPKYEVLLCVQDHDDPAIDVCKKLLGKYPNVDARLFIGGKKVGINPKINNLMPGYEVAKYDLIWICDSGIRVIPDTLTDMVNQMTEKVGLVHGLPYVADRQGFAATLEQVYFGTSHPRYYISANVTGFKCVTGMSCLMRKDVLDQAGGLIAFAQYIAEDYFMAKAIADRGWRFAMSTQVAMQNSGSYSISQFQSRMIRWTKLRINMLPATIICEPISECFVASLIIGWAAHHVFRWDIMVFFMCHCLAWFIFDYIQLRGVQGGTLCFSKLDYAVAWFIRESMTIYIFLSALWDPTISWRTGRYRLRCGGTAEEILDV
Assay: UDP-Glo glucosylceramide synthase biochemical assay
Conditions: crude Golgi preparation from A375 cells; C6 ceramide and UDP-glucose substrates; 20 h incubation at room temperature; UDP detected by luminescence
Procedure, shortened: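 Endogenous enzyme in A375 Golgi preparations (1.5 μg total protein) was preincubated 30 min with compound, then reacted 20 h at room temperature with UDP-glucose and ceramide.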

EC50	SMILES
360 nM	O=C(Nc1cccc2c1C(=O)N(CC1(O)CCC1)C2)c1ccnc2c1CCC2 [Compound 166, N-(2-((1-hydroxycyclobutyl)methyl)-3-oxoisoindolin-4-yl)-6,7-dihydro-5H-cyclopenta[b]pyridine-4-carboxamide]
2.1 nM	Cc1ccc(F)c(C(=O)Nc2cncc3c2C(=O)N([C@H](C2CC2)C(C)(C)O)C3)c1Cl [Compound 167, (R)-2-chloro-N-(2-(1-cyclopropyl-2-hydroxy-2-methylpropyl)-1-oxo-2,3-dihydro-1H-pyrrolo[3,4-c]pyridin-7-yl)-6-fluoro-3-methylbenzamide]
